Test results as given in PMC5019189 (European journal of pharmacology, 2015).
Where two headings read alike, the source gives them in different places.

How the values were obtained:
HUVEC = experiment: Cell viability; format: cell-based, human; conditions: 24 h, linear regression, mean of three experiments
[1] = test system: TNF-α-induced VCAM-1 protein expression; experiment: ELISA of 24 h TNF-α-induced VCAM-1 protein expression on HUVEC; format: cell-based, human; conditions: for inhibition of the VCAM-1 protein expression elicited by TNF-α: 50 μM compound
[2] = test system: abnormal MHC gene expression in thyroid epithelial cells; conditions: ref Giuliani et al., 2010; cited from earlier work
[3] = test system: TNF-α-induced VCAM-1 mRNA expression; conditions: human aortic endothelial cells, Northern blot analysis; ref Dagia et al., 2004; cited from earlier work

IC50 ([1]; Homo sapiens, 24 h, read-out: IC50, concentration of compound needed to inhibit 50% of the VCAM-1 expression) | IC50 ([1]; read-out: IC50, concentration of compound needed to inhibit 50% of the VCAM-1 expression, 10 ng/ml TNF-α, 24 h, ELISA, linear regression, average of at least three experiments) | Compound | TC50, concentration of compound needed to reduce the MTS signal by 50% of the control value (HUVEC) | inhibition of the VCAM-1 protein expression elicited by TNF-α ([1]; 24 h TNF-α) | inhibition of VCAM-1 protein expression ([1]; 70 μM compound, 24 h TNF-α) | suppression of abnormal MHC gene expression compared to MMI [2] | effect on 24 h TNF-α-induced VCAM-1 mRNA expression [3]
1.14 mM |  | Cn1cc[nH]c1=S [MMI, 3-methyl-1, 3 imidazole-2 thione] | 2.45 mM | no inhibitory effect | little, if any, inhibition |  | 
 | 0.066 mM | Cn1c(-c2ccccc2)c[nH]c1=S [1a, 4-phenyl-3-methyl-1, 3 imidazole-2-thione] |  | over 40% |  | 70–100 fold | inhibits
